{
  "source": "patent US20210386367A1",
  "about": "“DEVICES AND SYSTEMS FOR GASTROINTESTINAL MICROBIOME DETECTION AND MANIPULATION” (Progenity, Inc., priority 2018, published 2021)",
  "origin": "cited, not measured here",
  "details_in_all_cases": "cited from earlier work",
  "key": {"[1]": {"system": "Bacteroides thetaiotaomicron"}, "Clostridium spp.": {"system": "Clostridium spp."}, "Lactobacillus spp.": {"system": "Lactobacillus spp."}, "Prevotella spp.": {"system": "Prevotella spp."}, "Bacteroides fragilis": {"system": "Bacteroides fragilis"}, "Fusobacterium nucleatum": {"system": "Fusobacterium nucleatum"}, "[2]": {"system": "E. coli ATCC 35218 (TEM-1 β-lactamase producer)"}, "XDR Enterobacteriaceae": {"system": "XDR Enterobacteriaceae"}, "Pseudomonas aeruginosa": {"system": "Pseudomonas aeruginosa"}, "Klebsiella pneumoniae": {"system": "Klebsiella pneumoniae"}, "Haemophilus influenzae": {"system": "Haemophilus influenzae"}, "Proteus mirabilis": {"system": "Proteus mirabilis"}, "Citrobacter spp. [3]": {"system": "Citrobacter spp."}, "Staphylococcus aureus": {"system": "Staphylococcus aureus"}, "Bacteroides vulgatus": {"system": "Bacteroides vulgatus"}, "Prevotella bivia": {"system": "Prevotella bivia"}, "[4]": {"system": "Bacteroides thetaiotaomicron", "remark": "listed apart in the source"}, "Enterobacteriaceae": {"system": "Enterobacteriaceae"}, "Enterobacter spp. [5]": {"system": "Enterobacter spp."}, "Citrobacter spp. [6]": {"system": "Citrobacter spp.", "remark": "listed apart in the source"}, "Bacteroides spp": {"system": "Bacteroides spp"}, "Escherichia coli [7]": {"system": "Escherichia coli"}, "Staphylococci": {"system": "Staphylococci"}, "Bacteroides ovatus": {"system": "Bacteroides ovatus"}, "Enterobacter spp. [8]": {"system": "Enterobacter spp.", "remark": "listed apart in the source"}, "Escherichia coli [9]": {"system": "Escherichia coli", "remark": "listed apart in the source"}},
  "note": "Read-outs that look alike come from different tables or passages of the source.",
  "data": [
    {"compound": "CO/N=C(\\C(=O)N[C@@H]1C(=O)N2C(C(=O)O)=C(CSc3nc(=O)c(=O)[nH]n3C)CS[C@H]12)c1csc(N)n1", "note": "[ceftriaxone]", "values": [
      {"measurement": "% S", "setting": "[1]", "result": 2, "unit": "%"},
      {"measurement": "MIC50", "setting": "[1]", "result": 32, "unit": "mg/L"},
      {"measurement": "MIC90", "setting": "[1]", "result": ">32", "unit": "mg/L"},
      {"measurement": "% S", "setting": "Clostridium spp.", "result": 75, "unit": "%"},
      {"measurement": "MIC50", "setting": "Clostridium spp.", "result": 2, "unit": "mg/L"},
      {"measurement": "MIC50", "setting": "Lactobacillus spp.", "result": 4, "unit": "mg/L"},
      {"measurement": "MIC90", "setting": "Lactobacillus spp.", "result": 8, "unit": "mg/L"},
      {"measurement": "MIC range", "setting": "Lactobacillus spp.", "result": "0.12 to 64", "unit": "mg/L"},
      {"measurement": "% S", "setting": "Prevotella spp.", "result": 90, "unit": "%"},
      {"measurement": "MIC50", "setting": "Prevotella spp.", "result": 1, "unit": "mg/L"},
      {"measurement": "MIC90", "setting": "Prevotella spp.", "result": 8, "unit": "mg/L"},
      {"measurement": "MIC range", "setting": "Prevotella spp.", "result": "≤0.008 to 64", "unit": "mg/L"},
      {"measurement": "% S", "setting": "Bacteroides fragilis", "result": 15, "unit": "%"},
      {"measurement": "MIC50", "setting": "Bacteroides fragilis", "result": 32, "unit": "mg/L"},
      {"measurement": "MIC90", "setting": "Bacteroides fragilis", "result": ">32", "unit": "mg/L"},
      {"measurement": "% S", "setting": "Fusobacterium nucleatum", "result": 100, "unit": "%"},
      {"measurement": "MIC50", "setting": "Fusobacterium nucleatum", "result": 0.125, "unit": "mg/L"},
      {"measurement": "MIC90", "setting": "Fusobacterium nucleatum", "result": 0.5, "unit": "mg/L"},
      {"measurement": "MIC range", "setting": "Fusobacterium nucleatum", "result": "0.015 to 1", "unit": "mg/L"}
    ]},
    {"compound": "C[C@@H](O)[C@H]1C(=O)N2C(C(=O)O)=C(S[C@@H]3CN[C@H](C(=O)N(C)C)C3)[C@H](C)[C@H]12", "note": "[meropenem]", "values": [
      {"measurement": "CLSI QC range (MIC)", "setting": "[2]", "result": "(0.008-0.06) μg/mL"},
      {"measurement": "% S", "setting": "XDR Enterobacteriaceae", "result": 20.5, "unit": "%"},
      {"measurement": "MIC50", "setting": "XDR Enterobacteriaceae", "result": 8, "unit": "mg/L"},
      {"measurement": "MIC90", "setting": "XDR Enterobacteriaceae", "result": ">8", "unit": "mg/L"},
      {"measurement": "% S", "setting": "Pseudomonas aeruginosa", "result": 64.2, "unit": "%"},
      {"measurement": "MIC50", "setting": "Pseudomonas aeruginosa", "result": 1, "unit": "mg/L"},
      {"measurement": "MIC90", "setting": "Pseudomonas aeruginosa", "result": ">8", "unit": "mg/L"},
      {"measurement": "% S", "setting": "Klebsiella pneumoniae", "result": 38.3, "unit": "%"},
      {"measurement": "MIC50", "setting": "Klebsiella pneumoniae", "result": 8, "unit": "mg/L"},
      {"measurement": "MIC90", "setting": "Klebsiella pneumoniae", "result": 64, "unit": "mg/L"},
      {"measurement": "MIC50", "setting": "Haemophilus influenzae", "result": "≤0.125", "unit": "mg/L"},
      {"measurement": "MIC90", "setting": "Haemophilus influenzae", "result": 0.5, "unit": "mg/L"},
      {"measurement": "% S", "setting": "Proteus mirabilis", "result": 95.5, "unit": "%"},
      {"measurement": "MIC50", "setting": "Proteus mirabilis", "result": 0.12, "unit": "mg/L"},
      {"measurement": "MIC90", "setting": "Proteus mirabilis", "result": 0.25, "unit": "mg/L"},
      {"measurement": "MIC range", "setting": "Proteus mirabilis", "result": "0.12 to 16", "unit": "mg/L"},
      {"measurement": "% S", "setting": "Citrobacter spp. [3]", "result": 86.4, "unit": "%"},
      {"measurement": "MIC50", "setting": "Citrobacter spp. [3]", "result": "≤0.06", "unit": "mg/L"},
      {"measurement": "MIC90", "setting": "Citrobacter spp. [3]", "result": 4, "unit": "mg/L"},
      {"measurement": "MIC50", "setting": "Staphylococcus aureus", "result": "≤0.12", "unit": "mg/L"},
      {"measurement": "MIC90", "setting": "Staphylococcus aureus", "result": 4, "unit": "mg/L"},
      {"measurement": "% S", "setting": "Bacteroides vulgatus", "result": 100, "unit": "%"},
      {"measurement": "MIC50", "setting": "Bacteroides vulgatus", "result": 0.5, "unit": "mg/L"},
      {"measurement": "MIC90", "setting": "Bacteroides vulgatus", "result": 1, "unit": "mg/L"},
      {"measurement": "MIC range", "setting": "Bacteroides vulgatus", "result": "0.125 to 1", "unit": "mg/L"},
      {"measurement": "% S", "setting": "Prevotella bivia", "result": 100, "unit": "%"},
      {"measurement": "MIC50", "setting": "Prevotella bivia", "result": 0.03, "unit": "mg/L"},
      {"measurement": "MIC90", "setting": "Prevotella bivia", "result": "≤0.03", "unit": "mg/L"},
      {"measurement": "MIC range", "setting": "Prevotella bivia", "result": "≤0.03 to 0.06", "unit": "mg/L"},
      {"measurement": "% S", "setting": "[4]", "result": 100, "unit": "%"},
      {"measurement": "MIC50", "setting": "[4]", "result": 0.25, "unit": "mg/L"},
      {"measurement": "MIC90", "setting": "[4]", "result": 0.5, "unit": "mg/L"},
      {"measurement": "% S", "setting": "Enterobacteriaceae", "result": 97.2, "unit": "%"},
      {"measurement": "MIC50", "setting": "Enterobacteriaceae", "result": 0.03, "unit": "mg/L"},
      {"measurement": "MIC90", "setting": "Enterobacteriaceae", "result": 0.12, "unit": "mg/L"},
      {"measurement": "% S", "setting": "Enterobacter spp. [5]", "result": 57.5, "unit": "%"},
      {"measurement": "MIC50", "setting": "Enterobacter spp. [5]", "result": 0.5, "unit": "mg/L"},
      {"measurement": "MIC90", "setting": "Enterobacter spp. [5]", "result": 64, "unit": "mg/L"},
      {"measurement": "% S", "setting": "Citrobacter spp. [6]", "result": 99, "unit": "%"},
      {"measurement": "MIC50", "setting": "Citrobacter spp. [6]", "result": 0.03, "unit": "mg/L"},
      {"measurement": "MIC90", "setting": "Citrobacter spp. [6]", "result": 0.06, "unit": "mg/L"}
    ]},
    {"compound": "CO[C@H]1/C=C/O[C@@]2(C)Oc3c(C)c(O)c4c(O)c(c5c(nc6cc(C)ccn65)c4c3C2=O)NC(=O)/C(C)=C\\C=C\\[C@H](C)[C@H](O)[C@@H](C)[C@@H](O)[C@@H](C)[C@H](OC(C)=O)[C@@H]1C", "note": "[rifaximin]", "values": [
      {"measurement": "MIC50", "setting": "Bacteroides spp", "result": ">1024", "unit": "mg/L"},
      {"measurement": "MIC90", "setting": "Bacteroides spp", "result": ">1024", "unit": "mg/L"},
      {"measurement": "MIC50", "setting": "Escherichia coli [7]", "result": 32, "unit": "mg/L"},
      {"measurement": "MIC90", "setting": "Escherichia coli [7]", "result": 128, "unit": "mg/L"},
      {"measurement": "MIC50", "setting": "Staphylococci", "result": "≤0.06", "unit": "mg/L"},
      {"measurement": "MIC90", "setting": "Staphylococci", "result": 64, "unit": "mg/L"},
      {"measurement": "MIC range", "setting": "Staphylococci", "result": "≤0.06 to 64", "unit": "mg/L"},
      {"measurement": "MIC50", "setting": "Bacteroides ovatus", "result": 1, "unit": "mg/L"},
      {"measurement": "MIC90", "setting": "Bacteroides ovatus", "result": 1, "unit": "mg/L"},
      {"measurement": "% S", "setting": "Enterobacter spp. [8]", "result": 34.8, "unit": "%"},
      {"measurement": "MIC50", "setting": "Enterobacter spp. [8]", "result": 64, "unit": "mg/L"},
      {"measurement": "MIC90", "setting": "Enterobacter spp. [8]", "result": 128, "unit": "mg/L"},
      {"measurement": "MIC range", "setting": "Enterobacter spp. [8]", "result": "32 to 128", "unit": "mg/L"},
      {"measurement": "% S", "setting": "Escherichia coli [9]", "result": 85.4, "unit": "%"},
      {"measurement": "MIC50", "setting": "Escherichia coli [9]", "result": 16, "unit": "mg/L"},
      {"measurement": "MIC90", "setting": "Escherichia coli [9]", "result": 64, "unit": "mg/L"},
      {"measurement": "MIC range", "setting": "Escherichia coli [9]", "result": "4 to 64", "unit": "mg/L"}
    ]}
  ]
}
